We go through 18 molecules from patent publication US12390461B2, “Modulators of RAR-related orphan receptors (RORs)” (11949098 CANADA INC., priority 2018, dated 2025).

For orientation: inhibition means the change of the read-out against control, counted positive when it falls.

In this assay the test system is Th17 polarization of human peripheral blood mononuclear cells. The experiment in a line: Th17 polarization assay (IL-17A positive cells by flow cytometry). The assay is classed as cell-based. Particulars: PBMC, 10 nM compound, 48 hours, triplicates, average of 50% over the listed compounds, p<0.05, read-out: inhibition of the polarization of Th17 cells (percentage of IL17A positive cells relative to total CD4 T cells). An excerpt:
This assay measures the phenotypic effects of the compounds on the production of interleukin 17A (IL-17A). IL-17A genes are regulated by ROR response elements (ROREs). Compounds that bind to ROR (LBD) can inhibit the binding of RORγ to ROREs DNA site. Compounds can also reduce the effect of the binding which is enhanced by the binding of the co-activator protein.
Peripheral blood mononuclear cells were isolated by density gradient centrifugation. The principle of this method is that components of the blood have different densities and can be separated according to their relative density. […] This medium is denser than lymphocytes, monocytes, and platelets and they remain about it, but less dense than granulocytes and erythrocytes, which will drop below it. […] Four layers were form, each containing different cell types—the uppermost layer contain containing plasma was removed by pipetting. PBMCs layer and is a characteristically white and cloudy “blanket” was gently removed using a 10 ml pipette and added to warm medium or PBS (1:3) to wash off any remaining platelets and centrifuged at 400×g for 10 minutes. The pelleted cells were counted, and the percentage viability estimated using Trypan blue staining. Cells were frozen for long-term storage.
To preserve PBMCs at ultra-low temperatures in liquid nitrogen, dimethyl sulfoxide (DMSO) was used as a cryoprotectant to reduce the formation of ice crystals and prevent cell damage. To freeze, freshly isolated PBMCs are resuspended to 5×10^6 cells/mL in freezing medium containing 10% DMSO and 90% fetal bovine serum (FBS) and were placed inside a freezing container at −80° C. overnight to allow gradual and even cooling. The following day, samples were moved to a liquid nitrogen tank for long-term storage.
500 ml bottle of RPMI at 4° C. was opened in a biological safety cabinet. Half of the media was transferred to a 500 ml 0.22 um bottle top filter (with the vacuum turned off). 59 ml filtered heat inactivated fetal bovine serum (FBS), 6 ml penicillin-streptomycin solution (100×), 6.0 ml of L-glutamine (100×), 6.0 ml MEM non-essential amino acids 100×, 6.0 ml of sodium pyruvate were added and the volume was brought up to 500 ml by adding the RPMI. Culture media were stored in 4° C. and used for duration of two weeks.
PBMCs were thawed carefully to avoid loss of cell viability and functionality. Samples are removed from liquid nitrogen and placed on ice, after which they were thawed in a 37° C. water bath. Once there is a small crystal of ice left in the bottom on the tubes, 500 μL warm complete RPMI medium supplemented with 10% FBS, 1% penicillin-streptomycin, and L-glutamine was added dropwise. The cells were then transferred to Falcon tubes containing 10 mL warm medium and centrifuged for 10 minutes at 400×g to wash off the toxic DMSO. This wash step was repeated, and the cell pellet was then resuspended in medium to count as before. Once thawed, PBMCs was rested overnight to remove any apoptotic cell this increases viability and improves functionality and involves incubating the freshly thawed PBMCs in supplemented medium for approximately 18 hours. After this resting period, cells were washed to be used in culture.
Culture medium was changed every other day for the whole duration. Compounds were added to the polarized cells at day 12 for 48 hours. At measurement day, CD3/CD28 beads were removed and cells were treated with cell stimulation cocktail for 5 hours at the end of 48 hours incubation. Plates were centrifuged at 400×g for 10 minutes. Supernatant was collected for further testing and cells were resuspended in 1×PBS and washed twice at 400×g before staining for surface and intracellular markers.
The dye was used in 1:1000 concentration in 1×PBS. The cells were incubated in dye solution for 30 minutes in 4° C.
Consider `CSc1ncc(Cl)c(C(=O)Nc2sc3c(c2C(=O)NCc2ccccc2)CCCC3)n1` [Compound 2, N-(3-(benzylcarbamoyl)-4,5,6,7-tetrahydrobenzo[b]thiophen-2-yl)-5-chloro-2-(methylthio)pyrimidine-4-carboxamide], for which the inhibition at 0.01 µM is 30 to 70%.

Take `CSc1ncc(Cl)c(C(=O)Nc2sc3c(c2C(=O)NC2CCS(=O)(=O)C2)CCC(C)C3)n1` (stereo not drawn) [Compound 3, 5-chloro-N-(3-{[(1,1-dioxidotetrahydro-3-thienyl)amino]-carbonyl}-6-methyl-4,5,6,7-tetrahydro-1-benzothien-2-yl)-2-(methylthio)-4-pyrimidine-carboxamide]: the inhibition at 0.01 µM was in the range of 30 to 70%.

Regarding `CCC1CCc2c(sc(NC(=O)c3ccnn3C)c2C(=O)Nc2ccccc2C)C1` (stereo not drawn) [Compound 4, N-(6-ethyl-3-{[(2-methylphenyl)amino]carbonyl}-4,5,6,7-tetrahydro-1-benzothien-2-yl)-1-methyl-1H-pyrazole-5-carboxamide], the inhibition at 0.01 µM lay within 30 to 70%.

As to `CN1CCN(C(=O)c2c(NC(=O)c3ccccc3F)sc3c2CCC(C(C)(C)C)C3)CC1` (stereo not drawn) [Compound 5, N-{6-tert-butyl-3-[(4-methyl-1-piperazinyl)carbonyl]-4,5,6,7-tetrahydro-1-benzothien-2-yl}-2-fluorobenzamide], the inhibition at 0.01 µM lay in the range of 30 to 70%. Consider `CC1CCc2c(sc(NC(=O)c3ccccc3F)c2C(=O)N2CCN(C)CC2)C1` (stereo not drawn) [Compound 6, 2-fluoro-N-{6-methyl-3-[(4-methyl-1-piperazinyl)carbonyl]-4,5,6,7-tetrahydro-1-benzothien-2-yl}benzamide], for which the inhibition at 0.01 µM lay in the range of 30 to 70%.

As for `O=C(NCc1ccccc1)c1c(NC(=O)C(F)(F)F)sc2c1CCCC2` [Compound 7, N-benzyl-2-[(trifluoroacetyl)amino]-4,5,6,7-tetrahydro-1-benzothiophene-3-carboxamide], the inhibition at 0.01 µM is 30 to 70%. On to `Cc1ccnc(SCC(=O)Nc2sc3c(c2C(=O)NCc2ccccc2)CCCC3)n1` [Compound 8, N-benzyl-2-({[(4-methyl-2-pyrimidinyl)thio]acetyl}amino)-4,5,6,7-tetrahydro-1-benzothiophene-3-carboxamide], for which the inhibition at 0.01 µM lay in the range of 30 to 70%.

`O=C(CN1CCCCC1)Nc1sc2c(c1C(=O)NCc1ccccc1)CCCC2` [Compound 9, N-benzyl-2-[(1-piperidinylacetyl)amino]-4,5,6,7-tetrahydro-1-benzothiophene-3-carboxamide]: the inhibition at 0.01 µM fell in the range of 30 to 70%. In the case of `CN1CCN(CC(=O)Nc2sc3c(c2C(=O)NCc2ccccc2)CCCC3)CC1` [Compound 10, N-benzyl-2-{[(4-methyl-1-piperazinyl)acetyl]amino}-4,5,6,7-tetrahydro-1-benzothiophene-3-carboxamide], the inhibition at 0.01 µM was in the range of 30 to 70%.

With `CC1CCN(CC(=O)Nc2sc3c(c2C(=O)NCc2ccccc2)CCCC3)CC1` [Compound 11, N-benzyl-2-{[(4-methyl-1-piperidinyl)acetyl]amino}-4,5,6,7-tetrahydro-1-benzothiophene-3-carboxamide], the inhibition at 0.01 µM was 30 to 70%. In the case of `CC1CCCN1C(=O)c1c(NC(=O)c2cccnc2)sc2c1CCCC2` (stereo not drawn) [Compound 12, N-(3-(2-methylpyrrolidine-1-carbonyl)-4,5,6,7-tetrahydro-benzo[b]thiophen-2-yl)nicotinamide], the inhibition at 0.01 µM fell in the range of 30 to 70%. The same measure for `C[C@@H]1CCN(C(=O)c2c(NC(=O)c3cccnc3)sc3c2CCCC3)[C@H](C)C1` [Compound 13, N-(3-((2R,4R)-2,4-dimethylpiperidine-1-carbonyl)-4,5,6,7-tetrahydrobenzo[b]thiophen-2-yl)nicotinamide]: 30 to 70%.

Regarding `CCC1CCN(C(=O)c2c(NC(=O)c3cccnc3)sc3c2CCCC3)C1` (stereo not drawn) [Compound 15, N-(3-(3-ethylpyrrolidine-1-carbonyl)-4,5,6,7-tetrahydro-benzo[b]thiophen-2-yl)nicotinamide], the inhibition at 0.01 µM fell in the range of 30 to 70%. Regarding `Cn1ccnc1SCC(=O)Nc1sc2c(c1C(=O)NCc1ccccc1)CCCC2` [Compound 16, N-benzyl-2-(2-((1-methyl-1H-imidazol-2-yl)thio)acetamido)-4,5,6,7-tetrahydrobenzo[b]thiophene-3-carboxamide], the inhibition at 0.01 µM fell in the range of 30 to 70%. With `Cn1cnc(CNC(=O)c2c(NC(=O)c3cccnc3)sc3c2CCCC3)n1` [Compound 19, N-(3-(((1-methyl-1H-1,2,4-triazol-3-yl)methyl)carbamoyl)-4,5,6,7-tetrahydrobenzo[b]thiophen-2-yl)nicotinamide], the inhibition at 0.01 µM fell in the range of 30 to 70%. For `C[C@@H](C#N)NC(=O)c1c(NC(=O)c2cccnc2)sc2c1CCCC2` [Compound 20, (S)—N-(3-((1-cyanoethyl)carbamoyl)-4,5,6,7-tetrahydro-benzo[b]thiophen-2-yl)nicotinamide], the inhibition at 0.01 µM was in the range of 30 to 70%.

Regarding `O=C(Nc1sc2c(c1C(=O)c1ccccc1)CCCC2)c1cnccn1` [Compound 22, N-(3-benzoyl-4,5,6,7-tetrahydrobenzo[b]thiophen-2-yl)pyrazine-2-carboxamide], the inhibition at 0.01 µM was in the range of 30 to 70%. As for `Cc1cnc(S(C)(=O)=O)nc1C(=O)Nc1sc2c(c1C(=O)c1ccccc1)CCCC2` [Compound 23, N-(3-benzoyl-4,5,6,7-tetrahydrobenzo[b]thiophen-2-yl)-5-methyl-2-(methylsulfonyl)pyrimidine-4-carboxamide], the inhibition at 0.01 µM lay in the range of 30 to 70%.
